Source: patent US5324747A, “N-substituted anilines, inhibitors of phospholipases A2” (Hoffmann-La Roche Inc., priority 1992, dated 1994)

How the values were obtained:
HSF-PLA2 = molecular target: T1, HSF-PLA2 (Homo sapiens, UniProt P14555); test: Assay for Inhibition of HSF-PLA2 In Vitro; type: biochemical; conditions: for IC50: read-out: Inhib of HSF-PLA2 IC50; for inhibition at 1 µM: read-out: Inhib of HSF-PLA2, % inhibition
T1 construct: extracellular enzyme obtained from human synovial fluid (HSF-PLA2); from tissue; host or cells: pooled human synovial fluid, added at 0.1% (v/v)
T1 sequence (P14555 21-144): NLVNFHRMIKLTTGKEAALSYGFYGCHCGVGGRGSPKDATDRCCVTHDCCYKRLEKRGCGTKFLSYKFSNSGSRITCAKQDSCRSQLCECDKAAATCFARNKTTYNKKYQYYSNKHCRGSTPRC
Outline: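 Extracellular PLA2 isolated from human synovial fluid, incubated 30 min at 37 °C with 14C-labelled phospholipid substrate in duplicate. Lipids were chloroform-extracted, and released 14C-oleic acid was separated from substrate by silica TLC; a no-enzyme control was run in each experiment.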

PLA2 Rat Paw Edema = test: Phospholipase A2 Rat Paw Edema; type: in vivo, Lewis rats; conditions: Rattus norvegicus; 2 hr; 30 mg/kg; read-out: % Inhib of PLA2 Rat Paw Edema 2 hr (30 mg/kg)
Procedure: Phospholipase A2 Rat Paw Edema
Representation compounds of the invention were tested in rats to determine their ability to inhibit the acute inflammatory response induced by the injection of snake venom phospholipase A2. Test compounds are administered intraperitoneally or orally to groups of seven Lewis rats (≈200 gm) 1 hr prior to phospholipase A2 administration. The test compounds are dissolved in dimethyl sulfoxide for intraperitoneal administration and dissolved or suspended in Labrafil M-1944CS for oral administration. At 0 hr, 5 ug (10 units) of purified phospholipase A2 from Naja naja venom (Sigma Chem. Co.) dissolved in 0.1 mL of pyrogen free saline is injected subplantarly into the right hind paw to elicit the inflammatory response. The volume (in mL) of the right hind paw is measured by immersion of the paw to the level of the lateral malleolus in an aqueous plethysmometer immediately prior to the injection of phospholipase A2 and then at 0.5, 2 and 4 hr after phospholipase A2 injection. The paw edema is calculated by subtracting the zero time reading from the readings taken after injection. The percent change of the edema volume from the vehicle treated control is calculated to determine the activity of the test compound. Statistical analysis of the mean paw edema values of the control versus the treated groups is performed using Student's t-test. Significance of changes from mean value for vehicle-treated animals (*p<0.05, **p<0.01, ***p<0.001, ns/not significant).

[1] = system: Croton Oil Mouse Ear Edema; test: Croton Oil Mouse Ear Edema Test; type: in vivo, CD-1 mice; conditions: topical, coapplied, 6 hours
[2] = system: rat carrageenan-induced paw edema; test: Rat Carrageenan Paw Edema; type: in vivo, Lewis rats; conditions: 2 h; for inhibition in vivo at 30 mg/kg: 30 mg/kg ip
Procedure: Rat Carrageenan Paw Edema
Representative compounds of the invention were tested in rat carrageenan-induced paw edema to determine their ability to inhibit this acute inflammatory response. Test compounds are administered intraperitoneally or orally to groups of seven Lewis rats (≈200 gm) 1 hr prior to carrageenan administration. The test compounds are dissolved in dimethyl sulfoxide for intraperitoneal administration and dissolved or suspended in Labrafil […] for oral administration. At 0 hour, 0.1 mL of 1% carrageenan dissolved in pyrogen free saline is injected subplantarly into the right hind paw to elicit the inflammatory response. The volume (in mL) of the right hind paw is measured by immersion of the paw to the level of the lateral malleolus in an aqueous plethysmometer immediately prior to the injection of carrageenan and then at 1, 2 and 4 hr after carrageenan injection. The paw edema is calculated by substracting the zero time reading from the readings taken after injection. The percent change of the edema volume from the vehicle treated control is calculated to determine the activity of the test compound. Statistical analysis of the mean paw edema values of the control versus the treated groups are performed using Student's t-test.

[3] = system: adjuvant arthritis model in rats; test: Established Adjuvant Arthritis Test; type: in vivo
Procedure: Established Adjuvant Arthritis Test
Representative compounds of the invention were tested in the standard adjuvant arthritis model in rats, induced by Freunds complete adjuvant, as described by C. E. Brinckerhoff, J. W. Coffey and A. C. Sullivan, Science, 221, p. 756-758 (1983).

| SMILES | IC50 (HSF-PLA2) | inhibition in vivo at 30 mg/kg (PLA2 Rat Paw Edema) | % Inhib of Croton Oil Mouse Ear Edema (1 mg) [1] | inhibition in vivo at 30 mg/kg [2] | inhibition at 1 µM (HSF-PLA2) | Change in Paw Volume (mL) Treated ([3]; 10 mg/kg ip) | Change in Paw Volume (mL) Treated ([3]; 30 mg/kg ip) | inhibition in vivo at 10 mg/kg ([2]; 10 mg/kg ip) |
| --- | --- | --- | --- | --- | --- | --- | --- | --- |
| CCCCCCCCCCCCCCCCCCOc1cc(OCCCCCc2cccc(O)c2O)cc(N(CC(=O)O)CC(=O)O)c1 [Example 146] | 200 nM | 74% | 18% | 55% | – | – | – | – |
| CCCCCCCCCCCCCCCCCCOc1cc(NS(=O)(=O)C(F)(F)F)cc(N(CC(=O)O)CC(=O)O)c1 [Example 162, N-(Carboxymethyl)-N-[3-(octadecyloxy)-5-[[(trifluoromethyl)sulfonyl]amino]phenyl]glycine] | – | 65% | 79% | 69% | 82% | – | – | – |
| CCCCCCCCCCCCCCCCCCOc1cc(OCCCOc2ccccc2)cc(N(CC(=O)O)CC(=O)O)c1 [Example 58, N-(Carboxymethyl)-N-[3-(octadecyloxy)-5-(3-phenoxypropoxy)phenyl]glycine] | 60 nM | 36% | 78% | 29% | – | 0.37 ± 0.14 mL | – | – |
| CCCCCCCCCCOc1cccc(N(CC(=O)O)CC(=O)O)c1 [Example 36a, N-(carboxymethyl)-N-[3-(decyloxy)phenyl]glycine] | 2900 nM | 35% | – | 47% | – | – | – | – |
| CCCCCCCCCCCCCCCCCCOc1cc(OCCCP(=O)(O)OCC)cc(N(CC(=O)O)CC(=O)O)c1 [Example 89] | – | 45% | – | – | 31% | – | -0.68 ± 0.08 mL | – |
| CCCCCCCCCCCCCCCCCCOc1cc(OCCCP(=O)(OCC)OCC)cc(N(CC(=O)O)CC(=O)O)c1 [Example 88, N-(Carboxymethyl)-N-[3-[3-(diethoxyphosphinyl)propoxy]-5-(octadecyloxy)phenyl]glycine] | 400 nM | 46% | 43% | 57% | – | – | -0.90 ± 0.11 mL | – |
| CCCCCCCCCCCCCCCCCCOc1cc(OCCCOc2ccc(S(C)(=O)=O)cc2)cc(N(CC(=O)O)CC(=O)O)c1 [Example 161, N-(Carboxymethyl)-N-[3-[3-[4-(methylsulfonyl)phenoxy]propoxy]-5-(octadecyloxy)phenyl]glycine] | – | 66% | 87% | 56% | 100% | – | – | – |
| CCCCCCCCCCCCCCCCCCOc1cc(C(=O)O)cc(N(CC(=O)O)CC(=O)O)c1 [Example 70, N-[3-Carboxy-5-(octadecyloxy)phenyl]-N-(carboxymethyl)glycine] | 1000 nM | 45% | 0% | – | – | 0.30 ± 0.09 mL | – | – |
| CCCCCCCCCCCCCCCCCCOc1cc(OCCCCC(=O)OC)cc(N(CC(=O)O)CC(=O)O)c1 [Example 64] | 60 nM | 61% | 87% | 69% | – | 0.65 ± 0.12 mL | – | – |
| CCCCCCCCCCCCCCCCCCOc1cc(OCCCOc2ccc(C(C)(C)C)cc2)cc(N(CC(=O)O)CC(=O)O)c1 [Example 177, N-(Carboxymethyl)-N-[3-[3-[4-(1,1-dimethylethyl)phenoxy]propoxy]-5-(octadecyloxy)phenyl]glycine] | – | 41% | 22% | 57% | 95% | – | – | – |
| CCCCCCCCCCCCCCCCCCOc1cc(OCCCOc2cccc(N)c2)cc(N(CC(=O)O)CC(=O)O)c1 [Example 58n, N-(carboxymethyl)-N-[3-[3-(3-aminophenoxy)propoxy]-5-(octadecyloxy)phenyl]glycine] | 130 nM | 4% | 64% | 65% | – | 0.23 ± 0.12 mL | – | – |
| CCCCCCCCCCCCCCCCCCOc1cc(OCCCOc2cccc(Br)c2)cc(N(CC(=O)O)CC(=O)O)c1 [Example 108, N-(Carboxymethyl)-N-3-[3-[3-(bromophenoxy)propoxy]-5-(octadecyloxy)phenyl]glycine] | – | 12% | 34% | 33% | 92% | – | – | – |
| CCCCCCCCCCCCCCCCCCOc1cc(OCCCOc2cccc([N+](=O)[O-])c2)cc(N(CC(=O)O)CC(=O)O)c1 [Example 58m, N-(carboxymethyl)-N-[3-[3-(3-nitrophenoxy)propoxy]-5-(octadecyloxy)phenyl]glycine] | – | 52% | 60% | – | 79% | 0.40 ± 0.13 mL | – | 61% |
| CCCCCCCCCCCCCCCCCCOc1cc(C(=O)OC)cc(N(CC(=O)O)CC(=O)O)c1 [Example 69, N-(Carboxymethyl)-N-[3-(methoxycarbonyl)-5-(octadecyloxy)phenyl]glycine] | 100 nM | 57% | 22% | – | – | – | – | – |
| CCCCCCCCCCCCCCCCCCOc1cc(OCCOCCOCCOCC)cc(N(CC(=O)O)CC(=O)O)c1 [Example 151] | – | 43% | 54% | – | 100% | 0.28 ± 0.16 mL | – | – |
| CCCCCCCCCCCCCCCCCCOc1cc(OCCCCc2ccc3cc(O)c(O)cc3c2)cc(N(CC(=O)O)CC(=O)O)c1 [Example 154, N-(Carboxymethyl)-N-[3-[4-(2,3-dihydroxy-6-naphthalenyl)butoxy]-5-(octadecyloxy)phenyl]glycine] | – | 78% | – | 70% | 96% | – | – | – |
| CCCCCCCCCCCCCCCCCCOc1cc(OCCCOc2ccc([S+](C)[O-])cc2)cc(N(CC(=O)O)CC(=O)O)c1 (stereo not drawn) [Example 159] | – | 78% | 59% | 44% | 100% | – | – | – |
| O=C(O)CN(CC(=O)O)c1cc(OCCCOc2ccccc2-c2ccccc2)cc(OCCCOc2ccccc2-c2ccccc2)c1 [Example 6l] | 420 nM | 0% | 30% | – | – | – | – | – |
| CCCCCCCCCCCCCCOC(=O)c1cc(C(=O)OCCCCCCCCCCCCCC)cc(N(CC(=O)O)CC(=O)O)c1 [Example 25, N-(Carboxymethyl)-N-[3,5-bis[(tetradecyloxy)carbonyl]phenyl]glycine] | – | 17% | 62% | – | 48% | – | – | – |
| CCCCCCCCCCCCCCCCCCOc1cc(OCCO)cc(N(CC(=O)O)CC(=O)O)c1 [Example 58a, N-(carboxymethyl)-N-[3-(2-hydroxyethoxy)-5-(octadecyloxy)phenyl]glycine] | 200 nM | 29% | 0% | – | – | – | – | – |
